Source: US6361788B1, “Synergistic biocide composition” (Thor Chemie GmbH, priority 1997, dated 2002)

Legend:
Assay type in all cases: cell-based
Details in all cases: for growth of the microorganism: MIT ppm = row head c0
Pseudomonas putida = experiment: MIC and synergy of MIT and BIT in Müller-Hinton broth, 48 h; as to growth of the microorganism: key: growth of the microorganism took place (symbol '+'); or not (symbol '−')
Description: (§1) The synergy index is calculated according to the method of F. C. Kull et al., Applied Microbiology, Vol. 9 (1961), p. 538. Here the synergy index is calculated using the following formula:
(§2) Synergy index SI=Qa/QA+Qb/QB.
The synergy of the two active substances MIT and BIT against the microorganism Pseudomonas putida is shown as in Example 1.
(§3) The test batches again contained a Müller-Hinton broth as a nutrient medium. The cell density was 10^6 cells/mL. The incubation time was 48 h at 25° C. Each sample was incubated on an incubation shaker at 120 rpm.

Pseudomonas stutzeri = experiment: MIC and synergy of MIT and BIT in Müller-Hinton broth, 72 h; as to growth of the microorganism: key: growth of the microorganism took place (symbol '+'); or not (symbol '−')
Description: as §1, §2
The synergy of MIT and BIT against the microorganism Pseudomonas stutzeri is shown as in Example 1.
The test batches again contained a Müller-Hinton broth as a nutrient medium. The cell density was 10^6 cells/mL. The incubation time was 72 h at 25° C. Each sample was incubated on an incubation shaker at 120 rpm.

Pseudomonas aeruginosa = experiment: MIC and synergy of MIT and BIT in Müller-Hinton broth, 48 h; as to growth of the microorganism: key: growth of the microorganism took place (symbol '+'); or not (symbol '−')
Description: as §1, §2
The synergy of the two active substances MIT and BIT against the microorganism Pseudomonas aeruginosa is shown as in Example 1.
as §3

Penicillium funiculosum = experiment: MIC and synergy of MIT and BIT in Sabouraud maltose broth, 96 h; as to growth of the microorganism: key: growth of the microorganism took place (symbol '+'); or not (symbol '−')
Description: as §1, §2
The synergy of the two active substances MIT and BIT against the microorganism Penicillium funiculosum is shown as in Example 1.
The test batches contained a Sabouraud maltose broth as a nutrient medium. The spore concentration was 10^6 per mL. The incubation time was 96 h at 25° C. Each sample was incubated on an incubation shaker at 120 rpm.

[1] = BIT share of the BIT/MIT mixture at MIC, 48 h

O=c1[nH]sc2ccccc12 [BIT, 1,2-benzisothiazolin-3-one]
−: growth of the microorganism (Pseudomonas putida; BIT 60 ppm, 48 h) | growth of the microorganism (Pseudomonas putida; BIT 70 ppm, 48 h) | growth of the microorganism (Pseudomonas putida; BIT 80 ppm, 48 h) | growth of the microorganism (Pseudomonas stutzeri; BIT 20 ppm, 72 h) | growth of the microorganism (Pseudomonas stutzeri; BIT 25 ppm, 72 h) | growth of the microorganism (Pseudomonas stutzeri; BIT 30 ppm, 72 h) | growth of the microorganism (Pseudomonas aeruginosa; BIT 150 ppm, 48 h) | growth of the microorganism (Pseudomonas aeruginosa; BIT 175 ppm, 48 h) | growth of the microorganism (Pseudomonas aeruginosa; BIT 200 ppm, 48 h) | growth of the microorganism (Penicillium funiculosum; BIT 40 ppm, 96 h) | growth of the microorganism (Penicillium funiculosum; BIT 50 ppm, 96 h) | growth of the microorganism (Penicillium funiculosum; BIT 75 ppm, 96 h)
20 ppm: MIC at Total concentration BIT + MIT Qa + Qb (Pseudomonas stutzeri; 72 h) | MIC at BIT concentration Qa (Pseudomonas stutzeri; BIT share of the BIT/MIT mixture at MIC, 72 h) | MIC value (Pseudomonas stutzeri; used alone, 72 h at 25° C.)
1.00: Qa/QA (Pseudomonas putida; 48 h) | Synergy index Qa/QA + Qb/QB (Pseudomonas putida; 48 h) | Qa/QA (Pseudomonas stutzeri; 72 h) | Synergy index Qa/QA + Qb/QB (Pseudomonas stutzeri; 72 h) | Qa/QA (Pseudomonas aeruginosa; 48 h) | Synergy index Qa/QA + Qb/QB (Pseudomonas aeruginosa; 48 h) | Qa/QA (Penicillium funiculosum; 96 h) | Synergy index Qa/QA + Qb/QB (Penicillium funiculosum; 96 h)
200 ppm: MIC at Total concentration BIT + MIT Qa + Qb (Penicillium funiculosum; 96 h) | MIC at BIT concentration Qa (Penicillium funiculosum; share of the BIT/MIT mixture at MIC, 96 h)
+: growth of the microorganism (Pseudomonas putida; BIT 0.5 ppm, 48 h) | growth of the microorganism (Pseudomonas putida; BIT 1 ppm, 48 h) | growth of the microorganism (Pseudomonas putida; BIT 2.5 ppm, 48 h) | growth of the microorganism (Pseudomonas putida; BIT 5 ppm, 48 h) | growth of the microorganism (Pseudomonas putida; BIT 7.5 ppm, 48 h) | growth of the microorganism (Pseudomonas putida; BIT 10 ppm, 48 h) | growth of the microorganism (Pseudomonas putida; BIT 15 ppm, 48 h) | growth of the microorganism (Pseudomonas putida; BIT 20 ppm, 48 h) | growth of the microorganism (Pseudomonas putida; BIT 25 ppm, 48 h) | growth of the microorganism (Pseudomonas putida; BIT 30 ppm, 48 h) | growth of the microorganism (Pseudomonas putida; BIT 40 ppm, 48 h) | growth of the microorganism (Pseudomonas putida; BIT 50 ppm, 48 h) | growth of the microorganism (Pseudomonas stutzeri; BIT 0.5 ppm, 72 h) | growth of the microorganism (Pseudomonas stutzeri; BIT 1 ppm, 72 h) | growth of the microorganism (Pseudomonas stutzeri; BIT 2.5 ppm, 72 h) | growth of the microorganism (Pseudomonas stutzeri; BIT 5 ppm, 72 h) | growth of the microorganism (Pseudomonas stutzeri; BIT 7.5 ppm, 72 h) | growth of the microorganism (Pseudomonas stutzeri; BIT 10 ppm, 72 h) | growth of the microorganism (Pseudomonas stutzeri; BIT 15 ppm, 72 h) | growth of the microorganism (Pseudomonas aeruginosa; BIT 5 ppm, 48 h) | growth of the microorganism (Pseudomonas aeruginosa; BIT 10 ppm, 48 h) | growth of the microorganism (Pseudomonas aeruginosa; BIT 25 ppm, 48 h) | growth of the microorganism (Pseudomonas aeruginosa; BIT 50 ppm, 48 h) | growth of the microorganism (Pseudomonas aeruginosa; BIT 75 ppm, 48 h) | growth of the microorganism (Pseudomonas aeruginosa; BIT 100 ppm, 48 h) | growth of the microorganism (Pseudomonas aeruginosa; BIT 125 ppm, 48 h) | growth of the microorganism (Penicillium funiculosum; BIT 10 ppm, 96 h) | growth of the microorganism (Penicillium funiculosum; BIT 15 ppm, 96 h) | growth of the microorganism (Penicillium funiculosum; BIT 20 ppm, 96 h) | growth of the microorganism (Penicillium funiculosum; BIT 30 ppm, 96 h)
40 ppm: MIC value (Penicillium funiculosum; used alone, 96 h at 25° C.)
60 ppm: MIC at Total concentration BIT + MIT Qa + Qb (Pseudomonas putida; 48 h) | MIC at BIT concentration Qa (Pseudomonas putida; [1]) | MIC value (Pseudomonas putida; used alone, 48 h at 25° C.)
150 ppm: MIC at Total concentration BIT + MIT Qa + Qb (Pseudomonas aeruginosa; 48 h) | MIC at BIT concentration Qa (Pseudomonas aeruginosa; [1]) | MIC value (Pseudomonas aeruginosa; used alone, 48 h at 25° C.)
